In US5298621A, “Oligopeptide derivatives of ipoxantine endowed with immunomodulating activity and pharmaceutical compositions containing same” (Sigma-Tau Industrie Farmaceutiche Riunite S.p.A., priority 1990, dated 1994):

Assays:
[1] = system: splenocytes; test: "In vitro-ex vivo" mytogen (PHA)-induced splenocyte proliferation in mice
Experimental: Test 5 Assessment of the "in vitro-ex vivo" effect of ST 733 and ST 789 on the mytogen (PHA)-induced splenocyte proliferation in mice.
Male B6 D2 F1 mice (Charles River, Italy) aged 7-8 weeks (4 animals per group) were used.
PHA (phytohemagglutinine) active on T lymphocytes was used as mytogen. The mytogen was tested at three different concentrations (suboptimal, optimal, superoptimal): 0.5, 2 and 4 mcg/mL/well.
The compounds were administered i.p. 25 mg/kg/day from day -5 to day -1 (spleen excision at day 0).
The experimental procedure was conducted substantially as described by Kirchner et al, "Splenic suppressor macrophages induced in mice by injection of C. parvum", J. Immunol., 1975, 115:1212.
In particular, the cell suspensions obtained from the spleens of the animals of the same group were pooled and the cell concentration was adjusted to 5×10^6 cell/mL.
To volumes of 0.1 mL of each sample, equal volumes of the mytogen preparation were added so as to obtain the previously indicated final concentrations.
Each sample was prepared in triplicate in U-bottom microtiters. A control, to which 0.1 mL of medium was added instead of the mytogen, was also prepared. The control permits the extent of spontaneous proliferation in the absence of stimulation to be assessed.
The samples were incubated at 37° C. for 48 hours and then they were pulsed with 20 μL ^3 H-TdR (25 μCi/mL).
After 18 hours of further incubation, the cells were collected on filters and counted in a beta-counter to evaluate the incorporated radioactivity (in cpm).
The results for each sample are expressed by calculating the value of the area under the curve (AUC) obtained by plotting the values of the incorporated radioactivity (in cpm) versus the three concentrations of mytogen.
In addition to AUC, also the stimulation index (SI) is considered, that is defined as follows: [formula]

[2] = system: DTH reaction vs. SRBC; test: Delayed type hypersensitivity test (DTH) vs. SRBC in mice; type: in vivo; conditions: 25 mg/kg/day i.p. from day -3 to day +3 respect to the immunization
Experimental: Test 6 Assessment of the effect of ST 785 and ST 789 on the delayed type hypersensitivity test (DTH).
Male B6 D2 F1 mice (Charles River, Italy) aged 6, 12 and 16 weeks (8 animals per group) were used.
The compounds were administered i.p., 25 mg/kg/day from day -3 to day +3 (immunization at day 0). Immunization was carried out by s.c. injection in the upper dorsal zone of the animals of 0.2 mL of SRBC (5×10^7 cells/mL).
Four days following the sensitizing injection, the animals were administered the challenge injection to bring about the delayed hypersensibility reaction. 50 μL of SRBC solution (2×10^9 cells/mL) were injected in the left hind foot-pad of the mice. The contralateral foot-pad received an equal volume of PBS. 24 hours after the challenge injection, the animals were sacrificed by cervical dislocation. The legs were amputated and the differences in weight between the left leg (treated with the challenge injection) and the contralateral leg were evaluated.
The mean of weight differences in the legs of the animals of the same experimental group was determined; the differences in the mean values calculated for each experimental group were processed using Student's "t" test (Biostatistics in Pharmacology, loc cit.).
The experimental procedure which was used is described by Miller, T. E. et al, (1973), Immunopotentiation with BCG. Modulation of the response to sheep red blood cells. J. Cancer Inst., 51:1669.

[3] = system: thymocytes; test: "In vitro-ex vivo" mytogen (PHA, Con A)-induced murine thymocite proliferation; parameters: species or system mice; conditions: 25 mg/kg/day i.p. from day -4 to day -1
Experimental: Test 7 Assessment of the "in vitro-ex vivo" effect of ST 754, ST 785 and ST 789 on the mytogen (PHA, Con A)-induced murine thymocite proliferation.
The compounds were administered at the dose of 25 mg/kg/day from day -4 to day -1 (thymus excision at day 0). This test was conducted following the procedure described for test 5.
The Stimulation Index (S.I.) is as defined in test 5.

[4] = system: plaque-forming cells (PFC) in the spleen of SRBC-immunized mice; test: Primary antibody production (Jerne test) in the spleen of SRBC immunized mice; type: in vivo
Experimental: Test 1 Assessment of the effect of ST 657 and ST 789 on the primary antibody production (Jerne test) in the spleen of SRBC (Sheep Red Blood Cells) immunized mice.
Male B6 D2 F1 mice (Charles River, Italy) aged 7-8 weeks (6 animals per group) were used. In this test, the animals were examined separately.
The compounds were administered i.p. at the doses of 2.5 and 25 mg/kg (single administration) the same day of immunization (Table 1) or, at the dose of 2.5 mg/kg/day (repeated administrations), at days -2, 0 and +2 (immunization at day 0) (Table 2).
The experimental procedure has been described by Jerne, N.K. et al, Transpl. Rev., 18, 130 (1974). In particular, the animals were immunized by i.p. administrations of a SRBC suspension (1×10^7 cells/mouse in 0.2 mL of sterile saline).
5 days following treatment, the spleens were aseptically excised from the sacrificed animals.
The concentration of the splenocytes obtained from the spleen was adjusted to 1×10^7 cells/mL. Aliquots of 0.1 mL of suspension were mixed with warm agar-Hank's (2 mL) and 10% SRBC in PBS buffer (0.2 mL), seeded in Petri dishes and incubated at 37° C. for 60 minutes (samples tested in triplicates). Following addition of complement (2 mL of guinea pig serum diluted 1:10 in Tris buffer), Petri dishes were further incubated at 37° C. for 30 minutes. In the presence of complement, the antibody-secreting cells of splenocytes extracted from the spleens of SRBC-immunized mice cause a hemolytic reaction. This reaction brings about the formation of lytic plaques in the samples.
The results obtained are expressed as follows: […]
(a) number of plaque-forming cells (PFC) out of 10^6 cells;
(b) number of plaque-forming cells in the whole spleen.
The data obtained are processed with Dunnett's test (Biostatistics in Pharmacology, vol. II, Pergamon Press) to assess the statistical significance of differences recorded between groups of treated and control animals.

[5] = 25 mg/kg/day i.p. from day -5 to day -1
[6] = 25 mg/kg i.p., single administration on the day of immunization
[7] = 2,5 mg/kg i.p., single administration on the day of immunization
[8] = 2,5 mg/kg/day i.p. at days -2, 0, +2 (immunization at day 0)

Compound: N=C(N)NCCC[C@H](NC(=O)OCCCCCn1cnc2c(=O)[nH]cnc21)C(=O)O [ST 789, N-5-(ipoxantin-9-yl) pentyloxycarbonylarginine, reference compound]
- Body weight [1, 5]: 23.9 ± 0.1 g
- Spleen weight [1, 5]: 87.0 ± 4.5 mg
- Thymus weight [1, 5]: 64.5 ± 4.6 mg
- PHA AUC (area under curve, cpm versus three mytogen concentrations) ([1]; PHA 0.5, 2 and 4 mcg/mL/well, 25 mg/kg/day i.p. from day -5 to day -1): 114 × 10^-3
- PHA I.S. (stimulation index) ([1]; PHA-induced proliferation, 25 mg/kg/day i.p. from day -5 to day -1): 1.30
- mytogen-induced proliferation versus the controls (in words) ([1]; PHA, 25 mg/kg/day i.p.): slight increase
- Splenocytes No. (× 10^7) ([1]; pooled samples, 25 mg/kg/day i.p. from day -5 to day -1): 10.0 × 10^7
- Mean difference in weight (mg ± S.E.) between treated and untreated foot-pads [2]: 34.9 ± 0.76 mg
- Body weight [3]: 22.8 ± 0.5 g
- Thymus weight [3]: 74.2 ± 4.4 mg
- Con A AUC (× 10^-3) ([3]; Con A-induced proliferation): 68 × 10^-3
- Con A I.S. (stimulation index) ([3]; Con A-induced proliferation): 1.10
- PHA AUC (area under curve) ([3]; PHA-induced proliferation): 3924
- PHA I.S. (stimulation index) ([3]; PHA-induced proliferation): 1.40
- Thymocytes No. (× 10^7) ([3]; pooled samples): 12.1 × 10^7
- PFC/10^6 cells (x and ranges of variation) [4, 6]: 339 (318-360) PFC/10^6 cells
- PFC/spleen (x and ranges of variation) [4, 6]: 58137 (54505-62010) PFC/spleen

Compound: N-5-(ipoxantin-9-yl) pentyloxycarbonyl glycyl L-aspartate disodium salt [ST 657]
- PFC/10^6 cells (x and ranges of variation) [4, 6]: 422 (403-443) PFC/10^6 cells
- PFC/spleen (x and ranges of variation) [4, 6]: 61276 (54294-63323) PFC/spleen
- PFC/10^6 cells (x and ranges of variation) [4, 7]: 393 (368-420) PFC/10^6 cells
- PFC/spleen (x and ranges of variation) [4, 7]: 62356 (59939-64871) PFC/spleen
- PFC/10^6 cells (x and ranges of variation) [4, 8]: 416 (372-465) PFC/10^6 cells
- PFC/spleen (x and ranges of variation) [4, 8]: 67195 (59781-75529) PFC/spleen
- increase of PFC number with respect to control (in words) ([4]; comparison with ST 789): more active than ST 789
